The source of these data is ChEMBL document CHEMBL4673228, “Futunamine, a Pyrrole-Imidazole Alkaloid from the Sponge Stylissa aff. carteri Collected off the Futuna Islands” (J Nat Prod, 2020).

The source made the active and inactive calls. The calls are words filed in the database; no cut-off is given here. A value given as a limit tells only on which side of the number the result lay.

Data set [1] relates to SH-SY5Y. Put plainly: Cytotoxicity against human SH-SY5Y cells assessed as reduction in cell viability at 0.001 to 10 uM after 24 hrs by MTT assay. To be noted: dose 0.001-10 µM. The class given is cell-based. In general terms: Tetrazolium dyes change colour on reduction, which living cells bring about.
Data set [2] has as its system SH-SY5Y. The data set can be described thus: Neuroprotective activity against TBHP-induced human SH-SY5Y cells assessed as decrease in ROS production at 0.001 to 10 uM after 6 hrs by DCFH-DA dye based spectrophotometric assay relative to control. Type of data set: functional. On the set-up: scale not given: the % may be the effect or the level left. To be noted: dose 0.001-10 µM.

Data set [3] deals with SH-SY5Y. Put plainly: Neuroprotective activity against TBHP-induced cytotoxicity in human SH-SY5Y cells assessed as increase in cell viability at 10 uM after 6 hrs by MTT assay. The class given is functional, cell-based.
The subject of data set [4] is BV-2. The data set can be described thus: Cytotoxicity against mouse BV-2 cells assessed as reduction in cell viability at 0.001 to 10 uM after 24 hrs by MTT assay. Type of data set: cell-based. The following applies: bv-2, 24 h, dose 0.001-10 µM.
Data set [5] concerns BV-2. The data set can be described thus: Inhibition of LPS-induced NO production in mouse BV-2 cells at 0.1 to 1 uM preincubated for 1 hrs followed by LPS-stimulation and measured after 24 hrs by Griess reagent based spectrophotometric assay. To be noted: dose 0.1-1 µM. The class given is functional, cell-based.
Data set [6] relates to SH-SY5Y. The data set can be described thus: Neuroprotective activity against TBHP-induced human SH-SY5Y cells assessed as decrease in ROS production at 1 uM after 6 hrs by DCFH-DA dye based spectrophotometric assay relative to control. Type of data set: functional. On the set-up: scale not given: the % may be the effect or the level left.
For data set [7], the system named is SH-SY5Y. Put plainly: Neuroprotective activity against TBHP-induced cytotoxicity in human SH-SY5Y cells assessed as increase in cell viability at 0.001 uM after 6 hrs by MTT assay. Type of data set: functional, cell-based.

For `Nc1nc([C@H]2[C@H](CNC(=O)c3cc(Br)c(Br)[nH]3)/C(=C\CNC(=O)c3ccc[nH]3)c3cnc(N)n32)c[nH]1`, the Activity entry in the data set with SH-SY5Y [1] is recorded as “Non-Toxic”; in the data set on SH-SY5Y [2], 35%; in the data set with BV-2 [4], “Non-Toxic”. The outcome in the data set with SH-SY5Y [3] was Active.

For the compound `NC1=N[C@]2([C@H](O)N1)[C@@H](Cl)[C@H](CNC(=O)c1cc(Br)c(Br)[nH]1)[C@H]1CN3C(=O)c4cccn4[C@@H]4N=C(N)N[C@@]43[C@@H]12.O=C(O)C(F)(F)F.O=C(O)C(F)(F)F`, the Activity entry in the data set on SH-SY5Y [1] is “Non-Toxic”; with SH-SY5Y [2] it was 35%; in the data set with BV-2 [4], “Non-Toxic”. Besides, in the data set with BV-2 [5], the inhibition entry was “Active”.

As for `Nc1nc(/C=C/CNC(=O)c2cc(Br)c[nH]2)c[nH]1`, the Activity entry is “Non-Toxic” in the data set on SH-SY5Y [1], above 25% with SH-SY5Y [6] and “Non-Toxic” with BV-2 [4]. Besides, in the data set on BV-2 [5], the inhibition entry was “Active”. Also, in the data set on SH-SY5Y [7], the result was Active.

Regarding `C[C@]1(COC(=O)c2cc(Br)c[nH]2)C[C@@H](C(=O)O)N=CN1` [MANZACIDIN A], the Activity entry in the data set on SH-SY5Y [1] was “Non-Toxic”; in the data set with SH-SY5Y [6], above 25%; with BV-2 [4] it was “Non-Toxic”. The result in the data set with SH-SY5Y [7] was Active.

For `NC1=N[C@]2([C@H](O)N1)[C@@H](Cl)[C@H](CNC(=O)c1cc(Br)c(Br)[nH]1)[C@H]1CN3C(=O)c4[nH]ccc4[C@@H]4N=C(N)N[C@@]43[C@@H]12.O=C(O)C(F)(F)F.O=C(O)C(F)(F)F`, the Activity entry in the data set with SH-SY5Y [1] and in the data set with BV-2 [4] was “Non-Toxic” each time.

As for `Nc1ncc(/C=C/CNC(=O)c2cc(Br)c(Br)[nH]2)[nH]1` [OROIDIN], the Activity entry in the data set on SH-SY5Y [1] and in the data set on BV-2 [4] was “Non-Toxic” each time. Besides, the result in the data set with SH-SY5Y [7] was Active.
